# Test results as given in patent US11464770B2, “Anticancer pharmaceutical composition” (NATIONAL CANCER CENTER, priority 2016, dated 2022).
# Read-outs that look alike come from different tables or passages of the source.
# Test system: breast cancer cell lines (e.g. MDA-MB-231, SK-BR-3, MDA-MB-468, HCC1954)
# Assay: Cell based assay, cell viability (CellTiter-Glo), breast cancer cell lines
# In short: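 Read-out is ATP-dependent luminescence (CellTiter-Glo) taken after 72 h of exposure to compound at final concentrations from 0 to 2 μM. Cells were plated 24 h beforehand.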
# [1] = Homo sapiens, BT-20 cells, 72 hours treatment, CellTiter-Glo cell viability, read-out: IC50, Breast cancer cell line BT-20
# [2] = Homo sapiens, HCC1395 cells, 72 hours treatment, CellTiter-Glo cell viability, read-out: IC50, Breast cancer cell line HCC1395
# [3] = Homo sapiens, HCC1954 cells, 72 hours treatment, CellTiter-Glo cell viability, read-out: IC50, Breast cancer cell line HCC1954
# [4] = Homo sapiens, JIMT-1 cells, 72 hours treatment, CellTiter-Glo cell viability, read-out: IC50, Breast cancer cell line JIMT-1
# [5] = Homo sapiens, MCF7 cells, 72 hours treatment, CellTiter-Glo cell viability, read-out: IC50, Breast cancer cell line MCF7
# [6] = Homo sapiens, MDA-MB-231 cells, 72 hours treatment, CellTiter-Glo cell viability, read-out: IC50, Breast cancer cell line MDA-MB-231
# [7] = Homo sapiens, MDA-MB-468 cells, 72 hours treatment, CellTiter-Glo cell viability, read-out: IC50, Breast cancer cell line MDA-MB-468
# [8] = Homo sapiens, SK-BR-3 cells, 72 hours treatment, CellTiter-Glo cell viability, read-out: IC50, Breast cancer cell line SK-BR-3
# [9] = MDA-MB-231-L/DOX cells, 72 hours treatment, CellTiter-Glo cell viability, read-out: IC50, Breast cancer cell line MDA-MB-231-L/DOX
# [10] = Breast cancer cell line MDA-MB-231-L/DOX, 72 hours, CellTiter-Glo, read-out: IC50, MDA-MB-231-L/DOX
# [11] = Homo sapiens, Breast cancer cell line BT-20, 72 hours, CellTiter-Glo, read-out: IC50, BT-20
# [12] = Homo sapiens, Breast cancer cell line HCC1395, 72 hours, CellTiter-Glo, read-out: IC50, HCC1395
# [13] = Homo sapiens, Breast cancer cell line HCC1954, 72 hours, CellTiter-Glo, read-out: IC50, HCC1954
# [14] = Homo sapiens, Breast cancer cell line JIMT-1, 72 hours, CellTiter-Glo, read-out: IC50, JIMT-1
# [15] = Homo sapiens, Breast cancer cell line MCF7, 72 hours, CellTiter-Glo, read-out: IC50, MCF7
# [16] = Homo sapiens, Breast cancer cell line MDA-MB-231, 72 hours, CellTiter-Glo, read-out: IC50, MDA-MB-231
# [17] = Homo sapiens, Breast cancer cell line MDA-MB-468, 72 hours, CellTiter-Glo, read-out: IC50, MDA-MB-468
# [18] = Homo sapiens, Breast cancer cell line SK-BR-3, 72 hours, CellTiter-Glo, read-out: IC50, SK-BR-3
SMILES,IC50 [1] [nM],IC50 [2] [nM],IC50 [3] [nM],IC50 [4] [nM],IC50 [5] [nM],IC50 [6] [nM],IC50 [7] [nM],IC50 [8] [nM],IC50 [9] [nM],IC50 [10] [nM],IC50 [11] [nM],IC50 [12] [nM],IC50 [13] [nM],IC50 [14] [nM],IC50 [15] [nM],IC50 [16] [nM],IC50 [17] [nM],IC50 [18] [nM]
"CC(=O)c1c([S+]([O-])Cc2ccc(C(F)(F)F)nc2C)[nH]c2c(Br)ccc(Cl)c2c1=O (stereo not drawn) [Compound 102, 3-acetyl-8-bromo-5-chloro-2-(((2-methyl-6-(trifluoromethyl)pyridin-3-yl)methyl)sulfinyl)quinolin-4(1H)-one]",> 2000,> 10000,1020,> 10000,> 2000,1720,1350,850,> 2000,–,–,–,–,–,–,–,–,–
"CC(=O)c1c([S+]([O-])Cc2ccc(Cl)nc2)[nH]c2c(Br)ccc(Cl)c2c1=O (stereo not drawn) [Compound 104, 3-acetyl-8-bromo-5-chloro-2-(((6-chloropyridin-3-yl)methyl)sulfinyl)quinolin-4(1H)-one]",> 2000,> 10000,1050,> 10000,> 2000,1540,1460,930,> 2000,–,–,–,–,–,–,–,–,–
"O=C(c1c([S+]([O-])Cc2ccc(SC(F)(F)F)cc2)[nH]c2c(Br)ccc(Cl)c2c1=O)C1CC1 (stereo not drawn) [Compound 101, 8-bromo-5-chloro-3-(cyclopropanecarbonyl)-2-((4-((trifluoromethyl)thio)benzyl)sulfinyl)quinolin-4(1H)-one]",> 2000,> 10000,1220,> 10000,> 2000,> 2000,1670,1670,> 2000,–,–,–,–,–,–,–,–,–
"CC(=O)c1c(SCc2cccc(C#N)c2)[nH]c2c(Br)ccc(Cl)c2c1=O [Compound 27, 3-(((3-acetyl-8-bromo-5-chloro-4-oxo-1,4-dihydroquinolin-2-yl)thio)methyl)benzonitrile]",–,–,–,–,–,–,–,–,–,> 2000,> 2000,> 10000,> 2000,> 10000,> 2000,> 2000,> 2000,> 2000
"CC(=O)c1c([S+](C)[O-])n(S(=O)(=O)c2ccc(C(C)(C)C)cc2)c2c(Br)ccc(Cl)c2c1=O (stereo not drawn) [Compound 42, 3-acetyl-8-bromo-1-((4-(tert-butyl)phenyl)sulfonyl)-5-chloro-2-(methylsulfinyl)quinolin-4(1H)-one]",–,–,–,–,–,–,–,–,–,> 2000,> 2000,> 10000,> 2000,> 10000,> 2000,> 2000,> 2000,1570
"CC(=O)c1c([S+]([O-])C(C)C)[nH]c2c(Br)ccc(Cl)c2c1=O (stereo not drawn) [Compound 25, 3-acetyl-8-bromo-5-chloro-2-(isopropylsulfinyl)quinolin-4(1H)-one]",–,–,–,–,–,–,–,–,–,> 2000,> 2000,> 10000,> 2000,> 10000,> 2000,> 2000,> 2000,1720
"CC(=O)c1c([S+](C)[O-])[nH]c2c(Br)ccc(Cl)c2c1=O (stereo not drawn) [Compound 1, 3-acetyl-8-bromo-5-chloro-2-(methylsulfinyl)quinolin-4(1H)-one]",–,–,–,–,–,–,–,–,–,> 2000,> 2000,> 10000,> 2000,> 10000,> 2000,> 2000,> 2000,1090
"CSc1c(C(C)=O)c(=O)c2c(Cl)ccc(Br)c2n1C [Compound 5, 3-acetyl-8-bromo-5-chloro-1-methyl-2-(methylthio)quinolin-4(1H)-one]",–,–,–,–,–,–,–,–,–,> 2000,> 2000,> 10000,> 2000,> 10000,> 2000,> 2000,> 2000,> 2000
"CC(=O)c1c([S+](C)[O-])n(C(C)=O)c2c(Br)ccc(Cl)c2c1=O (stereo not drawn) [Compound 19, 1,1′-(8-bromo-5-chloro-2-(methylsulfinyl)-4-oxoquinoline-1,3(4H)-diyl)bis(ethan-1-one)]",–,–,–,–,–,–,–,–,–,> 2000,> 2000,> 10000,> 2000,> 10000,> 2000,> 2000,> 2000,> 2000
"CSc1c(C(C)=O)c(=O)c2c(Cl)ccc(Br)c2n1C(C)=O [Compound 18, 1,1′-(8-bromo-5-chloro-2-(methylthio)-4-oxoquinoline-1,3(4H)-diyl)bis(ethan-1-one)]",–,–,–,–,–,–,–,–,–,> 2000,> 2000,> 10000,> 2000,> 10000,> 2000,> 2000,> 2000,> 2000
"CCS(=O)(=O)n1c([S+](C)[O-])c(C(C)=O)c(=O)c2c(Cl)ccc(Br)c21 (stereo not drawn) [Compound 39, 3-acetyl-8-bromo-5-chloro-1-(ethylsulfonyl)-2-(methylsulfinyl)quinolin-4(1H)-one]",–,–,–,–,–,–,–,–,–,> 2000,> 2000,> 10000,> 2000,> 10000,> 2000,> 2000,> 2000,> 2000
"CC(=O)c1c(SCc2ccc(Cl)cc2)[nH]c2c(Br)ccc(Cl)c2c1=O [Compound 10, 3-acetyl-8-bromo-5-chloro-2-((4-chlorobenzyl)thio)quinolin-4(1H)-one]",–,–,–,–,–,–,–,–,–,> 2000,> 2000,> 10000,> 2000,> 10000,> 2000,> 2000,> 2000,> 2000
"CC(=O)c1c([S+]([O-])Cc2ccc(S(F)(F)(F)(F)F)cc2)[nH]c2c(F)ccc(F)c2c1=O (stereo not drawn) [Compound 80, 3-acetyl-5,8-difluoro-2-((4-(pentafluoro--sulfanyl)benzyl)sulfinyl)quinolin-4(1H)-one]",–,–,–,–,–,–,–,–,–,> 2000,> 2000,> 10000,> 2000,> 10000,> 2000,> 2000,> 2000,> 2000
"CC(=O)c1c([S+]([O-])Cc2cnc3[nH]ccc3c2)[nH]c2c(Br)ccc(Cl)c2c1=O (stereo not drawn) [Compound 107, 2-(((1H-pyrrolo[2,3-b]pyridin-5-yl)methyl)sulfinyl)-3-acetyl-8-bromo-5-chloroquinolin-4(1H)-one]",> 2000,> 10000,> 2000,> 10000,> 2000,> 2000,> 2000,> 2000,> 2000,–,–,–,–,–,–,–,–,–
"COC(=O)c1ccc(C[S+]([O-])c2[nH]c3c(Cl)ccc(Cl)c3c(=O)c2C(C)=O)cc1 (stereo not drawn) [Compound 91, methyl 4-(((3-acetyl-5,8-dichloro-4-oxo-1,4-dihydroquinolin-2-yl)sulfinyl)methyl)benzoate]",> 2000,> 10000,1820,> 10000,> 2000,> 2000,1320,1320,> 2000,–,–,–,–,–,–,–,–,–
"CSc1c(C(C)=O)c(=O)c2c(Cl)ccc(Br)c2n1S(=O)(=O)c1ccc(Cl)cc1 [Compound 37, 3-acetyl-8-bromo-5-chloro-1-((4-chlorophenyl)sulfonyl)-2-(methylthio)quinolin-4(1H)-one]",–,–,–,–,–,–,–,–,–,> 2000,> 2000,> 10000,> 2000,> 10000,> 2000,> 2000,> 2000,> 2000
"CC(=O)c1c(SCc2ccc(F)c(Cl)c2)[nH]c2c(Br)ccc(Cl)c2c1=O [Compound 30, 3-acetyl-8-bromo-5-chloro-2-((3-chloro-4-fluorobenzyl)thio)quinolin-4(1H)-one]",–,–,–,–,–,–,–,–,–,> 2000,> 2000,> 10000,> 2000,> 10000,> 2000,> 2000,> 2000,> 2000
